Assay results reported in ChEMBL document CHEMBL1135085, “Potent P1' biphenylmethyl substituted aggrecanase inhibitors” (Bioorg Med Chem Lett, 2002).

Experiments:
[1] = Inhibitory activity against aggrecanase was determined
Interstitial collagenase = biological target: T1, Interstitial collagenase (Homo sapiens, UniProt P03956); assay: Binding affinity for interstitial collagenase (MMP-1)
T1 sequence (P03956 whole entry): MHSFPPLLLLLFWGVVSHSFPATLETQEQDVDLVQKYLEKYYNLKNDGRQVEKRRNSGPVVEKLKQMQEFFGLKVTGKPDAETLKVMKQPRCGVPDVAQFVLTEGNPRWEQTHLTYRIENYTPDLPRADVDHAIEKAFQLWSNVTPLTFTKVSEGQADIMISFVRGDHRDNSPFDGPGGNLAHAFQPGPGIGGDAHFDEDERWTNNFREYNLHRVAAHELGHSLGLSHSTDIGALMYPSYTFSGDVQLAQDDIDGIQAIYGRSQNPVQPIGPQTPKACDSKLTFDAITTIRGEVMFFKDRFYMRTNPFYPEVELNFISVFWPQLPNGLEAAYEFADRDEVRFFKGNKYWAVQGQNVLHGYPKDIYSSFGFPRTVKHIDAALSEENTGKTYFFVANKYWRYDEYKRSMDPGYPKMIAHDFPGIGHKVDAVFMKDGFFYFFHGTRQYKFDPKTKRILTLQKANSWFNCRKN

[2] = biological target: 72 kDa type IV collagenase (Homo sapiens, UniProt P08253); assay: Binding affinity for human gelatinase A (MMP-2)
[3] = biological target: Matrix metalloproteinase-9 (Homo sapiens, UniProt P14780); assay: Binding affinity for human gelatinase B (MMP-9)
Chain of Matrix metalloproteinase-9 (P14780 whole entry): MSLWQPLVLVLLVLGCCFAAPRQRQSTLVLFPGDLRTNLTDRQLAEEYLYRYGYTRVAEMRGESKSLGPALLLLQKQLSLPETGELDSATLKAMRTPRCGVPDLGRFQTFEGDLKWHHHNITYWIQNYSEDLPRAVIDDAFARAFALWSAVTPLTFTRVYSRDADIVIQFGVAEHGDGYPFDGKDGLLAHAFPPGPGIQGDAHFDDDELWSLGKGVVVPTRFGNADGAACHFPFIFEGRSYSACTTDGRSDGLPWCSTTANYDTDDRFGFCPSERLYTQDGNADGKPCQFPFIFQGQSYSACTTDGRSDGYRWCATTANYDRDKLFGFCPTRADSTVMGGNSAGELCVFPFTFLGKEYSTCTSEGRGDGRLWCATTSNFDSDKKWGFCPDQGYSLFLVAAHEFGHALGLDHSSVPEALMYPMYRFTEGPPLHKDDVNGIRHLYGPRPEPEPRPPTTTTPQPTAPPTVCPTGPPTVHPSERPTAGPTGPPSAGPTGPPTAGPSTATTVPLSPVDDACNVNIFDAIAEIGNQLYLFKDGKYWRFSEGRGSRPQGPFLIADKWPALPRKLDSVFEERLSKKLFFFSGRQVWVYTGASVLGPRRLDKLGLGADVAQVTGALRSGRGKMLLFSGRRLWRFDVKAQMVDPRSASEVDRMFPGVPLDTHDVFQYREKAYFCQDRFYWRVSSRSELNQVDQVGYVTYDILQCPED

Chain of 72 kDa type IV collagenase (P08253 whole entry): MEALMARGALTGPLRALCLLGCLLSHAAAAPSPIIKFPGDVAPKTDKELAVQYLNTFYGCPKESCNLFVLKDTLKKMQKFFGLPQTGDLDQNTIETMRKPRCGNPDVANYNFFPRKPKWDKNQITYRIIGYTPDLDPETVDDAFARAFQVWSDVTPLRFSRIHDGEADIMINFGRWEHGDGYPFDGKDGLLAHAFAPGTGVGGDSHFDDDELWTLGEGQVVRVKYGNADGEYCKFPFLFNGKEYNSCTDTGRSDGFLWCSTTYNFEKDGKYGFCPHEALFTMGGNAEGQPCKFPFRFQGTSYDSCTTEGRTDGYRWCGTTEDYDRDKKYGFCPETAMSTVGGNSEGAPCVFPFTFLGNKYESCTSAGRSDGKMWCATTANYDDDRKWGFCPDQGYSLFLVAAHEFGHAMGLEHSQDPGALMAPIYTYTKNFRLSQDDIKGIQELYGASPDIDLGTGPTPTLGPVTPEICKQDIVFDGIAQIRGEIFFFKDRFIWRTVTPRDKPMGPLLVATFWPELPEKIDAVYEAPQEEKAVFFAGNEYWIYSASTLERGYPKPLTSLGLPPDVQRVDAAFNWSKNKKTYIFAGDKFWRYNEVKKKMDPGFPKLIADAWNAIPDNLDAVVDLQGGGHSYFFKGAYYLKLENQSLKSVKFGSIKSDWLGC

SMILES | IC50 [1] [nM] | Ki (Interstitial collagenase) [nM] | Ki [2] [nM] | Ki [3] [nM]
CS(=O)(=O)Nc1cccc(-c2ccc(C[C@H](CC(=O)NO)C(=O)N[C@H]3c4ccccc4C[C@H]3O)cc2)c1 | 1.5 |  |  | 
O=C(C[C@@H](Cc1cccc(O)c1)C(=O)N[C@H]1c2ccccc2C[C@H]1O)NO | 64 |  |  | 
COc1ccccc1-c1ccc(C[C@H](CC(=O)NO)C(=O)N[C@H]2c3ccccc3C[C@H]2O)cc1 | 3.4 |  |  | 
O=C(C[C@@H](Cc1ccc(-c2ccccc2Cl)cc1)C(=O)N[C@H]1c2ccccc2C[C@H]1O)NO | 32 | > 5000 | 27 | 150
O=C(C[C@@H](Cc1ccc(-c2ccccc2-c2nn[nH]n2)cc1)C(=O)N[C@H]1c2ccccc2C[C@H]1O)NO | 239 | > 5000 | 1130 | 277
O=C(C[C@@H](Cc1ccc(-c2ccccc2CO)cc1)C(=O)N[C@H]1c2ccccc2C[C@H]1O)NO | 144 | > 5000 | 500 | > 2000
Cc1ccccc1-c1ccc(C[C@H](CC(=O)NO)C(=O)N[C@H]2c3ccccc3C[C@H]2O)cc1 | 11.6 | 4110 | < 2.8 | 4.2
O=C(C[C@@H](Cc1ccc(-c2ccc3c(c2)OCO3)cc1)C(=O)N[C@H]1c2ccccc2C[C@H]1O)NO | 1.5 | 12800 | 43 | 309

Continued, values first:

IC50 [1] [nM] | Ki (Interstitial collagenase) [nM] | Ki [2] [nM] | Ki [3] [nM] | SMILES
3.7 | > 5000 | < 2.8 | 2.8 | COc1cccc(-c2ccc(C[C@H](CC(=O)NO)C(=O)N[C@H]3c4ccccc4C[C@H]3O)cc2)c1
9.8 | > 5000 | < 1 | 5.4 | O=C(C[C@@H](Cc1ccc(-c2ccccc2)cc1)C(=O)N[C@H]1c2ccccc2C[C@H]1O)NO
11.5 | > 5000 | 39 | 1080 | Cc1cccc(-c2ccc(C[C@H](CC(=O)NO)C(=O)N[C@H]3c4ccccc4C[C@H]3O)cc2)c1
216 |  |  |  | CC(C)c1cccc(-c2ccc(C[C@H](CC(=O)NO)C(=O)N[C@H]3c4ccccc4C[C@H]3O)cc2)c1
2 |  |  |  | O=C(C[C@@H](Cc1ccc(-c2cccc(F)c2)cc1)C(=O)N[C@H]1c2ccccc2C[C@H]1O)NO
5.5 |  |  |  | O=C(C[C@@H](Cc1ccc(-c2cccc([N+](=O)[O-])c2)cc1)C(=O)N[C@H]1c2ccccc2C[C@H]1O)NO
